We go through 2 compounds from patent US7514419B2, “Phosphorus-containing thyromimetics” (Metabasis Therapeutics, Inc., priority 2003, dated 2009).

Data set [1] has as its system cholesterol-fed rat. Nature of the data set: Subacute study in cholesterol-fed rats, IP once-a-day for seven days: serum cholesterol, heart weight, heart mGPDH.
Method: The cholesterol-fed rat is an animal model of hypercholesterolemia generated by feeding the animals a diet with high cholesterol content.
Methods: Rats were maintained on a diet containing 1.5% cholesterol and 0.5% cholic acid for 2 weeks prior to initiation of treatment. Serum cholesterol values were assessed and the animals randomized into groups for treatment.
The test system of data set [2] is normal rats maintained on a cholesterol-containing diet. Nature of the data set: Continuous infusion study in rats on a cholesterol-containing diet. Particulars: continuous infusion 1 mg/kg/day.
Method: Screening for thyromimetic activity was performed in normal rats maintained on a cholesterol-containing diet.
Data set [3] concerns mice. Nature of the data set: Circulating TSH, mice, 77 days. In kind it is in vivo, mouse. Particulars: 10 mg/kg/d for 77 days. An excerpt: (§1) Another concern with synthetic thyromimetics is the suppression of the endogenous thyroid axis. Thyroid homeostasis is maintained by the action of thyroid releasing hormone (TRH) and thyroid stimulating hormone (TSH). […] Although this particular side effect has been noted, it has typically been treated with less concern than the cardiac safety issues. […] Therefore previous investigators have measured TSH levels when testing synthetic thyromimetics and have used a 30% decrease of TSH as the denominator in their therapeutic index calculations. […] Therefore, both compounds suppress TSH as doses lower than that required to decrease circulating cholesterol. […] However, 0.2 mg/kg/d of Compound 18 in 28 day treated ZDF rats, decreased TSH levels greater than 90%.

Data set [4] has as its system ZDF rats. Nature of the data set: Hepatic triglyceride content and steatosis in ZDF rats, oral 28 days. It counts as in vivo, rat. How it is done: In other experiments, Compound 7 was orally administered to ZDF rats for 28 days. Liver triglycerides were analyzed as described above. Total liver triglycerides were reduced in the treated animals 42% in the 2.5 mg/kg/d group. […] The hepatic steatosis is a well known and described phenomenon for the ZDF rat, and therefore not attributable to vehicle treatment.

The test system of data set [5] is Normal rats. Nature of the data set: Hepatic triglyceride content in normal rats infused for 7 days. It counts as in vivo, rat. The following applies: normal rats chronically infused for 7 days. The procedure: Normal rats were chronically infused with Compound 7 for 7 days. Liver triglycerides were analyzed following lipid extraction by the Bligh Dyer method (Bligh EG and Dyer WJ, A rapid method of total lipid extraction and purification. Can J Med Sci. 1959 (August); 37(8):911-7, incorporated herein by reference). Total triglycerides were analyzed in the liver extracts by an enzymatic assay (Thermo Electron Corporation). Total lipid was normalized to initial liver weight and triglyceride content was normalized to liver weight. […] There was a 4% reduction in liver triglycerides for this group and the results were not statistically significant.

Data set [6] has as its system ZDF rats. The data set can be described thus: Circulating TSH, ZDF rats, 28 days. It counts as in vivo, rat. The following applies: 50 mg/kg/d for 28 days.
Text: as §1

The subject of data set [7] is cholesterol-fed rats. The data set can be described thus: Circulating TSH, cholesterol-fed rats, 7 days. It counts as in vivo, rat. Particulars: cholesterol-fed rats treated for 7 days; 30% decrease of TSH.
Text: as §1

Data set [8] has as its system cholesterol fed rats. The data set can be described thus: Subacute study in cholesterol fed rats, PO once a day for seven days: cholesterol reduction, heart weight. The following applies: 1 mg/kg/day PO once a day for seven days. In kind it is in vivo, rat. The procedure: Methods: […] Compound 13-1-cis and Compound 18 were administered PO once a day for seven days. Serum TSH is measured using an enzyme immunoassay (EIA) kit designed for rat TSH (Amersham Pharmacia Biotech, Arlington Heights, Ill.). Expression levels of liver genes (e.g., the LDL-receptor, apoB, cpt-1, spot14 and apoAI) and heart genes ([…]2, HCN2,Kvl.5, MHCα, MHCβ, Alpha1c) are quantified by Northern blot analysis or by RT-PCR. […] Oligonucleotides specific for the complementary gene sequences are used to make ^32P-labeled probes (Multiprime DNA labeling systems, Amersham Pharmacia Biotech). Following hybridization of the probes to the nylon membranes, radioactivity is assessed on a blue film (Eastman Kodak Co,), and the resulting image quantified using the appropriate software. RT-PCR is performed using an iCycler instrument (Biorad) using appropriate primers by means of standard methodology [[…] et al. (2000) Life Sciences 66: 1683-94]. […] The activities of PEPCK and glucose 6-phosphatase in liver are measured by means of direct enzymatic assays of homogenized liver tissue as described by Andrikopoulos S et al. (1993) Diabetes 42: 1731-1736. Alternatively, expression levels of the corresponding genes are determined by Northern blot analysis or RT-PCR as described above.

Data set [9] deals with cholesterol-fed rat. Particulars: ED15 for heart rate compared to ED50 for cholesterol lowering; cited from earlier work.
The test system of data set [10] is Sprague Dawley (SD) rat. The data set can be described thus: Cardiovascular activity in the Sprague Dawley rat, 7 days oral. In kind it is in vivo. The following applies: SD rats, Compound 18 1 mg/kg, Compound cis-13-1 1-50 mg/kg/day. An excerpt:
Method: […] The control group (n=6) was given vehicle only. […] On the 7th day after the start of dosing, animals were anesthetized with Isofluorane and the left ventricle cannulated with a high fidelity catheter tip transducer via the right carotid artery. Left ventricular pressure, its first derivative (LVdP/dt), lead I ECG, and heart rate (HR) triggered off the ECG waveform, were digitally recorded. LV dP/dt is a well accepted measure of ionotropic state. Systolic and diastolic aortic pressures were measured by retracting the catheter into the proximal aorta.

Data set [11] concerns ZDF rats. Particulars: ZDF, rat, in vivo, po, 28 days. How it is done: Compound 18 was administered at doses up to 5 mg/kg/d. Compound cis-13-1 was administered at doses up to 50 mg/kg/d. We reasoned that the ZDF rat, as a metabolically challenged animal model, would be more sensitive to the potential adverse cardiac effects of thyromimetics than a normal, cholesterol-fed rat. At sacrifice, heart rate, and the first derivative of left ventricular pressure (LV dP/dt) were measured with a Millar catheter inserted into the left ventricle.

For the compound `Cc1cc(OCP(=O)(O)O)cc(C)c1Cc1ccc(O)c(C(C)C)c1` [Compound 7, [3,5-dimethyl-4-(4′-hydroxy-3′-iso-propylbenzyl)phenoxy]-methylphosphonic acid], the “Cardiac GPDH activity” value in [1] (Compound 17 at 1 mg/kg/day, compound 7 only at 100 mg/kg) is reported as “trend towards increased heart GPDH activity”. Also, the “therapeutic window (efficacy vs toxicity)” value in data set [1] (cholesterol lowering vs cardiac hypertrophy, induction of heart GPDH) is on record as 10-to 100 fold. Further, in [2], the “total cholesterol at day 7” value is “cholesterol lowering effects” and the “total cholesterol at day 14” value is on record as “cholesterol lowering effects”. The “cardiovascular parameters (heart rate, LV dP/dt, blood pressure)” value in data set [2] (day 7 or day 14) was “no changes in any of the cardiovascular parameters”. In data set [3], the TSH entry was “no decrease in TSH was observed”. Further, the “microvesicular steatosis (H&E liver sections)” value in data set [4] is on record as “dose dependent reduction in the microvesicular steatosis”. The “decrease in hepatic triglyceride content” value in data set [5] amounted to 64%. For the same compound, in [6], the TSH vs vehicle result is recorded as “no statistically significant difference from vehicle”.

On to `CC(C)c1cc(Oc2c(Cl)cc(CC(=O)O)cc2Cl)ccc1O` [Compound 18, 3,5-dichloro-4-[4′-hydroxy-3′-iso-propylphenoxy]-benzeneacetic acid, reference compound], for which the “therapeutic index of TSH levels” value in data set [7] is given as 0.4. Also, the serum cholesterol entry in [8] is “significantly decreased serum cholesterol”. Also, the “therapeutic index (TI) with respect to heart rate increases” value in [9] is 40. Besides, in data set [10], the “HR, LV dP/dt and aortic pressure compared to vehicle” value was “marked and statistically significant increases”. Besides, in data set [11], the “TI for LV dP/dt” value stood at 0.15 and the “therapeutic index with respect to heart rate” value is on record as 0.4.
